Laboratory results as given in patent US20250368767A1, “POLYMER FOR INHIBITING SARS-COV-2 AND OTHER PATHOGENS” (FREIE UNIVERSITÄT BERLIN, priority 2022, published 2025).

What was measured:
zeta potential = type: physicochemical
Method: Overall negative charge of the polymers owing to sulfate groups was confirmed by very high negative value of zeta potential (cf. Table 9). To check the morphology of P1 in aqueous solution, cryo-electron microscopy (cryo-EM) was performed. In accordance with the inventors' hypothesis, worm-like defined fibers having a length between approximately 150 nm and 215 nm were observed. Tomography of the sample was measured to calculate accurate length and width of the fibers.

[1] = system: wild-type (WT) SARS-CoV-2; type: cell-based; details: plaque reduction assay

## Heparin
Zeta potential
  ξ potential (mV): −31.2 ± 3.9 mV
[1]
  IC50 (μg/mL) against SARS-CoV-2: 1383.0 ± 255.1 µg/mL
[1]; read-out: IC50 (μM) against SARS-CoV-2
  IC50: 92.3 ± 19.4 µM
